Source: US10710993B2, “Benzofuran pyrazole amine kinase inhibitor” (Hangzhou REX Pharmaceutical Co., LTD., priority 2016, dated 2020)

Columns and labels:
TEL-ALK-F1174L-BaF3 = molecular target: T1, TEL-ALK-F1174L-BaF3 (Homo sapiens, UniProt Q9UM73, F1174L, cells depend on it); test: Cell proliferation experiment (Cell-Titer GLO), TEL-ALK-F1174L-BaF3; assay type: cell-based; conditions: 72 h, read-out: IC50 TEL-ALK F1174L-BaF3
T1 construct: fused on or other part: TEL (ETV6) N-terminal oligomerising part fused before the ALK intracellular/kinase part; P41212 (Transcription factor ETV6)
Protocol: (§1) Compounds to be tested: Positive compound Ceritinib and the compounds obtained by the examples of the present invention.
(§2) Cell lines: Karpas-299 and NCI-H3122 which were purchased from the Nanjing kebai biotechnology Co. LTD; TEL-ALK-F1174L-BaF3, TEL-ALK-G1202R-BaF3, TEL-ALK-C1156Y-BaF3 and TEL-ALK-L1196M-BaF3 which were purchased from Hefei zhongkopruisheng biological medicine technology Co. LTD.
(§3) Method: Cells were seeded in 96-well plates for 24 h in growth media containing 10% fetalbovine serum (FBS) and cultured overnight at 37° C. The following day, serial dilutions of compounds or appropriate control were added to the designated wells, and cells were incubated at 37° C. for 72 h. A Cell Titer Glo assay (Promega) was then performed to determine the relative cell numbers. IC50 values were calculated by concentration-response curve fitting using a four-parameter analytical method with Graphpad 6.0. Drug inhibition rate (%)=100%−[OD(Compound)−OD(blank)]/[OD(vehicle)−OD(blank)]×100% Equation: […]

TEL-ALK-G1202R-BaF3 = molecular target: T2, TEL-ALK-G1202R-BaF3 (Homo sapiens, UniProt Q9UM73, G1202R, cells depend on it); test: Cell proliferation experiment (Cell-Titer GLO), TEL-ALK-G1202R-BaF3; assay type: cell-based; conditions: 72 h, read-out: IC50 TEL-ALK G1202R-BaF3
T2 construct: fused on or other part: TEL (ETV6) N-terminal oligomerising part fused before the ALK intracellular/kinase part; P41212 (Transcription factor ETV6)
Protocol: as §1, §2, §3

TEL-ALK-C1156Y-BaF3 = molecular target: T3, TEL-ALK-C1156Y-BaF3 (Homo sapiens, UniProt Q9UM73, C1156Y, cells depend on it); test: Cell proliferation experiment (Cell-Titer GLO), TEL-ALK-C1156Y-BaF3; assay type: cell-based; conditions: 72 h, read-out: IC50 TEL-ALK C1156Y-BaF3
T3 construct: fused on or other part: TEL (ETV6) N-terminal oligomerising part fused before the ALK intracellular/kinase part; P41212 (Transcription factor ETV6)
Protocol: as §1, §2, §3

NCI-H3122 = test: Cell proliferation experiment (Cell-Titer GLO), NCI-H3122; assay type: cell-based; conditions: Homo sapiens, 72 h
Protocol: as §1, §2, §3

Karpas-299 = test: Cell proliferation experiment (Cell-Titer GLO), Karpas-299; assay type: cell-based; conditions: Homo sapiens, 72 h
Protocol: as §1, §2, §3

[1] = system: zebrafish iridophore pigment cells; test: Phenotypic screening of zebrafish: effect on iridophore pigment cells; assay type: in vivo, Zebrafish (Danio rerio); conditions: for IOD: added at 6 hpf, images at 3 dpf
Text: Zebrafish (Danio rerio) is emerging as a predictive vertebrate animal model for in vivo assessment of drug efficacy, toxicity and safety. An important advantage of the zebrafish animal model is that the morphological and molecular basis of tissues and organs is either identical or similar to other vertebrates, including humans. The sequence and presumed function of many genes that are important for vertebrates are conserved in the zebrafish and the homology is as high as 85%. It has been shown that loss-of-function alleles for leukocyte tyrosine kinase (Ltk), the sister kinase to ALK, lack iridophores in zebrafish (Lopes, S. S., Yang, X., et al. (2008). Leukocyte tyrosine kinase functions in pigment cell development. PLoS Genet, 4.). Iridophores are neural crest-derived pigment cells that are clearly visible as shiny silver cells in the developing zebrafish embryo which distribute in the head, eyes, the lateral spine. ALK and LTK are sister kinase.
Therefore, using this principle, we investigated the effect of the compounds on normal zebrafish iridophore pigment cells to explore the compound's anti-ALK activity in vivo.
Method: Fish eggs of 6 hpf (hours post impurity) were randomly divided into groups. Then, subjects with different concentrations were added and the images were collected at 3 dpf (days post impurity). Then, the IOD (integrated option density) values of zebrafish dorsal iridophore pigment cells from the release pore to the caudal position were analyzed using ImageJ software. The Graphpad prism6.0 was used to conduct statistical analysis on Dunnett's t-test, and p<0.05 indicates statistical difference. The calculation formula of iridophore pigment inhibition rate is as follows: Inhibition rate (%)=[1−IOD(Compound)/IOD(vehicle)]×100%

NCI-H2228 tumor cells = test: Subcutaneous NCI-H2228 lung cancer xenograft model; assay type: in vivo, BALB/C nude mice; conditions: for TGI / tumor volume: 30 mg/kg PO QD 14 days; for tumor volume: at 14 days after administration (first day after administration end); for anti-tumor effect: 30 mg/kg, once a day, continuously for 14 days
Protocol: BALB/C nude mice were inoculated at the right flank with NCI-H2228 tumor cells to establish the human Lung cancer xenograft model. […] The drug was administered for 14 days and then discontinued for two weeks. The therapeutic effect was evaluated by calculating the relative tumor proliferation rate T/C (%), and the tolerability of treatment was evaluated by the body weight changes and death.
Tumor volume (TV) were measured twice per week in two dimensions using a caliper, and the volume were expressed in mm^3 using the formula: V=0.5 a×b^2 where a and b are the long and short diameters of the tumor, respectively.
Relative tumor volume RTV=Vt/V0, Vt=tumor volume of the drug-treated group on a given day of the study, V0=tumor volume of the drug-treated group on the initial day of dosing.
The T/C value (%) is an indicator of tumor response to treatment, and one of commonly used anti-tumor activity endpoint; T/C %=TRTV/CRTV×100% Relative Tumor Growth Inhibition; % TGI=(1−T/C)×100%;

Wild-Type ALK = molecular target: T4, Wild-Type ALK (Homo sapiens, UniProt Q9UM73); test: Z'-LYTE (FRET) ALK kinase inhibitory activity; assay type: biochemical
T4 construct: purchased Life Technology
Protocol: (§4) The kinase activity assay was determined by using kinase assay panel (Life Technology) and the result was in table 1.

ALK L1196M = molecular target: T5, ALK L1196M (Homo sapiens, UniProt Q9UM73, L1196M); test: LanthaScreen Eu Kinase Binding Assay (TR-FRET) on ALK mutant
T5 construct: purchased Life Technology
Text: Meanwhile, The LanthaScreen® Eu Kinase Binging Assay (TR-FRET) method was used for determining ALK Mutants (such as ALK L1196M) inhibitory activity IC50. LanthaScreen Eu kinase binding experiment detected Alexa Fluor conjugate or kinase “tracer” binding by adding Eu labeled antibodies or anti-label antibodies. The combination of tracer and antibody with kinase leads to a high level of FRET, whereas the use of kinase inhibitors in place of tracer may cause FRET loss.
as §4

TEL-ALK-L1196M-BaF3 = molecular target: T6, TEL-ALK-L1196M-BaF3 (Homo sapiens, UniProt Q9UM73, L1196M, cells depend on it); test: Cell proliferation experiment (Cell-Titer GLO), TEL-ALK-L1196M-BaF3; assay type: cell-based; conditions: 72 h, read-out: IC50 TEL-ALK L1196M-BaF3
T6 construct: fused on or other part: TEL (ETV6) N-terminal oligomerising part fused before the ALK intracellular/kinase part; P41212 (Transcription factor ETV6)
Protocol: as §2
Method: Cells were seeded in 96-well plates for 24 h in growth media containing 10% fetalbovine serum (FBS) and cultured overnight at 37° C. The following day, serial dilutions of compounds or appropriate control were added to the designated wells, and cells were incubated at 37° C. for 72 h. A Cell Titer Glo assay (Promega) was then performed to determine the relative cell numbers. IC50 values were calculated by concentration-response curve fitting using a four-parameter analytical method with Graphpad 6.0.

[2] = Danio rerio, 15 μM, iridophore pigment, 3 dpf, read-out: Inhibition rate %
[3] = at 14 days after administration
[4] = end of the experiment (15 days after the administration)

T6 sequence (Q9UM73 whole entry L1196M, the tested form may be a part): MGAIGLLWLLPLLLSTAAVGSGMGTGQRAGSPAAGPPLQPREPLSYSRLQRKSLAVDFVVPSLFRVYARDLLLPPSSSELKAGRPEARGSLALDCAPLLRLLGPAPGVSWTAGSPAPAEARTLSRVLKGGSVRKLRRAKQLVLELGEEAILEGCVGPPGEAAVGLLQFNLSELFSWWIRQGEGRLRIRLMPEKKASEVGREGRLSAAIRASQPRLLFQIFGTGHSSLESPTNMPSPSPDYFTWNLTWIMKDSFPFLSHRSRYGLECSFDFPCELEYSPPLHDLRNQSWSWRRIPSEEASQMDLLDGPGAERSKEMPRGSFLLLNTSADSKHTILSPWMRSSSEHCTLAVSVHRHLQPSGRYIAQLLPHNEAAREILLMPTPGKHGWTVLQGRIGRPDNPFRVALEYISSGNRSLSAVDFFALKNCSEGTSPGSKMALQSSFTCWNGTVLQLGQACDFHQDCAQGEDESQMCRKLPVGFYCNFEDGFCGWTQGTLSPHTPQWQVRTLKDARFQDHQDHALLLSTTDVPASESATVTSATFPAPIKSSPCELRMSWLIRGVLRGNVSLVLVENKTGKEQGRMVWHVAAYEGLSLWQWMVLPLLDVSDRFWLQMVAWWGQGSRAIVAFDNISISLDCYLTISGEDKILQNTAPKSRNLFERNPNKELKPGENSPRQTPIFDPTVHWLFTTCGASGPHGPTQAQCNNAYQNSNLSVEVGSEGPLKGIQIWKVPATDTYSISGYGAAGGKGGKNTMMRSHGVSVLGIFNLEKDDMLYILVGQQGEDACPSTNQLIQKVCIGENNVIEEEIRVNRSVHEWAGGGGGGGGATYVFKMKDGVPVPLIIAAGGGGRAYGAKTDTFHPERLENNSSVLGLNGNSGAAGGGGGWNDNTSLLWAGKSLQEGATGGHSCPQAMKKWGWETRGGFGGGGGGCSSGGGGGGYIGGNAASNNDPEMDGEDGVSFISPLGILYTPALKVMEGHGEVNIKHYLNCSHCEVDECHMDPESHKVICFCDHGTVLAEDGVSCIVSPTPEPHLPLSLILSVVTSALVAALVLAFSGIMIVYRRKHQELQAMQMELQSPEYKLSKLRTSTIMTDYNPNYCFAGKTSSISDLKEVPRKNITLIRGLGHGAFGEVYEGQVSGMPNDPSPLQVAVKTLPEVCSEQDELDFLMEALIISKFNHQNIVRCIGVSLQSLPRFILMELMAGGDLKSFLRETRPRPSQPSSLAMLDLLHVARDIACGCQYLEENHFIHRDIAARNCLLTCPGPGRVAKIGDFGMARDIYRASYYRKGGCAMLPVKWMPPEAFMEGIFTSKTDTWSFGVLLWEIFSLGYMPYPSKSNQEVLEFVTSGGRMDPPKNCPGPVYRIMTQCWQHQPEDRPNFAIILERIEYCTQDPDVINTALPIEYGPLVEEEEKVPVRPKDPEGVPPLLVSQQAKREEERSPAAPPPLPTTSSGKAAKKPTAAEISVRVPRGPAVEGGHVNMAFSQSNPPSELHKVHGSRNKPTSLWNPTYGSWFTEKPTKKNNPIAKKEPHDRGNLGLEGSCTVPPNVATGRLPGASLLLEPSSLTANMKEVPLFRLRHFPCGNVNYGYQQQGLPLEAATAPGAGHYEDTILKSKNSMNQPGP
T3 sequence (Q9UM73 whole entry C1156Y, the tested form may be a part): as the sequence (Q9UM73 whole entry L1196M, the tested form may be a part) above, with C1156Y, M1196L counted along it
T4 sequence (Q9UM73 19-1620): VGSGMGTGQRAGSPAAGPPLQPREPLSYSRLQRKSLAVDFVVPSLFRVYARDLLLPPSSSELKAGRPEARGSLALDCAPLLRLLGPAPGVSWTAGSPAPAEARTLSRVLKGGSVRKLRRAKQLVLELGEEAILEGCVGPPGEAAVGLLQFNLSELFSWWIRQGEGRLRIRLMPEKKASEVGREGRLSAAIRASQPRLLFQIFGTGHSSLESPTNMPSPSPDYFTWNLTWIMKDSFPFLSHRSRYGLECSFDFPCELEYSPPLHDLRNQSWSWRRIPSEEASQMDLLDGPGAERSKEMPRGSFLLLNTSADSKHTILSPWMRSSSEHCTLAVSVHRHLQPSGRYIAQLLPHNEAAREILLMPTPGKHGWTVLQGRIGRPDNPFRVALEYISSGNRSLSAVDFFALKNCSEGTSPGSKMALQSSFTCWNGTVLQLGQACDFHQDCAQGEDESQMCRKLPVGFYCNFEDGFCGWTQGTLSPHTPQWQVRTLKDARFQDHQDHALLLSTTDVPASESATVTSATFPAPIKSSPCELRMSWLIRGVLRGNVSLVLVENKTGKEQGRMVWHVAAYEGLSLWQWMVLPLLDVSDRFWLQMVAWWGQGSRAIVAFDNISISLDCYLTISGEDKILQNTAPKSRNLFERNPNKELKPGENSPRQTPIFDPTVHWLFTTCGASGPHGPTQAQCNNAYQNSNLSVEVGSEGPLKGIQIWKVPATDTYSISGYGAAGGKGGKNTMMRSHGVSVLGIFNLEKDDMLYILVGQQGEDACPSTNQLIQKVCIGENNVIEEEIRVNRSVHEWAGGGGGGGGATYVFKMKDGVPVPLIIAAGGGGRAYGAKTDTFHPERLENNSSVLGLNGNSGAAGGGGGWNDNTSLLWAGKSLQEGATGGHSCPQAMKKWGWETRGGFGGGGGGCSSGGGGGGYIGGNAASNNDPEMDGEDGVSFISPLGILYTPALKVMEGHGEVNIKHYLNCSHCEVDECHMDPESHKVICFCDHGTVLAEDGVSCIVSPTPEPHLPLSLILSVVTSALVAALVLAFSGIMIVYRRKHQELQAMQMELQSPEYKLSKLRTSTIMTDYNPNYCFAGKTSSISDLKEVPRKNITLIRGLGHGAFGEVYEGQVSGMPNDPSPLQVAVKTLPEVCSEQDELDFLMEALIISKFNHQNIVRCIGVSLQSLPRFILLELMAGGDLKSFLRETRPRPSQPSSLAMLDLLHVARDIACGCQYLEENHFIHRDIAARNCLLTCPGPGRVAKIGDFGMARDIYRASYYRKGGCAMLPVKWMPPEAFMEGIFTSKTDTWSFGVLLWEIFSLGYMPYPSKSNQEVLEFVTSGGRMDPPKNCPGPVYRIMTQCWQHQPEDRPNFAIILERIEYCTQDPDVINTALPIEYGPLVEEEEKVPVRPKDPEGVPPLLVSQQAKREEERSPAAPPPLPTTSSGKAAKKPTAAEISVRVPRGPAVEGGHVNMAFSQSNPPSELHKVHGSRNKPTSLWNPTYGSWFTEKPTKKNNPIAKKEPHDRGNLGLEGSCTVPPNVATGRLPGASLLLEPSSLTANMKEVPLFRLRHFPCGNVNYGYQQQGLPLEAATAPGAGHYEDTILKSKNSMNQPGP
T1 sequence (Q9UM73 whole entry F1174L, the tested form may be a part): as the sequence (Q9UM73 whole entry L1196M, the tested form may be a part) above, with F1174L, M1196L counted along it
T5 sequence (Q9UM73 19-1620 L1196M): as the sequence (Q9UM73 19-1620) above, with L1178M counted along it
T2 sequence (Q9UM73 whole entry G1202R, the tested form may be a part): as the sequence (Q9UM73 whole entry L1196M, the tested form may be a part) above, with M1196L, G1202R counted along it

SMILES | GI50 (TEL-ALK-F1174L-BaF3) | GI50 (TEL-ALK-G1202R-BaF3) | GI50 (TEL-ALK-C1156Y-BaF3) | IC50 (NCI-H3122) | IC50 (Karpas-299) | IOD ([1]; 15 μM) | inhibition at 15 µM [1, 2] | TGI (NCI-H2228 tumor cells; [3]) | tumor volume (NCI-H2228 tumor cells) | TGI (NCI-H2228 tumor cells; [4]) | anti-tumor effect (NCI-H2228 tumor cells) | IC50 (Wild-Type ALK) | IC50 (ALK L1196M) | GI50 (TEL-ALK-L1196M-BaF3) | further results
Cc1cc(Nc2ncc(Cl)c(Nc3ccccc3S(=O)(=O)C(C)C)n2)c(OC(C)C)cc1C1CCNCC1 [Ceritinib, reference compound] | 36.1 nM | > 180 nM | 36.5 nM | 40.7 nM | 40 to 85 nM | 35.5 ± 7.0 | 95% | 94.7% | 17 mm^3 | 95.3% | significant anti-tumor effect |  |  |  | 
Cc1cc(Nc2ncc(Cl)c(Nc3cn(C)nc3S(=O)(=O)C(C)C)n2)c2c(c1C1CCNCC1)C[C@@H](C)O2 [REX-D1, (R)-5-chloro-N^2-(2,5-dimethyl-4-(piperidin-4-yl)-2,3-dihydrobenzofuran-7-yl)-N^4-(3-(isopropylsulfonyl)-1-methyl-1H-pyrazol-4-yl)pyrimidine-2,4-diamine] | < 10 nM | > 180 nM | 10.5 nM | 10.6 nM | < 20 nM |  |  |  |  |  |  | 6.82 nM | 1.34 nM | 10.5 nM | 
Cc1cc(Nc2ncc(Cl)c(Nc3cn(C)nc3S(=O)(=O)C(C)C)n2)c2c(c1C1CCN(C)CC1)C[C@@H](C)O2 [REX-D2, (R)-5-chloro-N^2-(2,5-dimethyl-4-(1-methylpiperidin-4-yl)-2,3-dihydrobenzofuran-7-yl)-N^4-(3-(isopropylsulfonyl)-1-methyl-1H-pyrazol-4-yl)pyrimidine-2,4-diamine] | < 10 nM | < 50 nM | 10.4 nM | 10.6 nM | < 10 nM | 64.6 ± 16.1 | 91% | 96.1% | 13 mm^3 | 98.8% | significant anti-tumor effect | 13.3 nM | 0.695 nM | 10.5 nM | IOD ([1]; 5 μM): 420.9 ± 34.1; IOD ([1]; 10 μM): 173.8 ± 20.5; IOD ([1]; 20 μM): 24.8 ± 5.8; inhibition at 5 µM ([1]; Danio rerio, 5 μM, iridophore pigment, 3 dpf, read-out: Inhibition rate %): 38%; inhibition at 10 µM ([1]; Danio rerio, 10 μM, iridophore pigment, 3 dpf, read-out: Inhibition rate %): 75%; inhibition at 20 µM ([1]; Danio rerio, 20 μM, iridophore pigment, 3 dpf, read-out: Inhibition rate %): 96%; inhibition of the formation of iridophore pigment cells ([1]; different doses of concentration): significant inhibition
Cc1cc(Nc2ncc(C(F)(F)F)c(Nc3cn(C)nc3S(=O)(=O)C(C)C)n2)c2c(c1C1CCNCC1)C[C@@H](C)O2 [REX-D3, (R)—N^2-(2,5-dimethyl-4-(piperidin-4-yl)-2,3-dihydrobenzofuran-7-yl)-N^4-(3-(isopropylsulfonyl)-1-methyl-1H-pyrazol-4-yl)-5-(trifluoromethyl)pyrimidine-2,4-diamine] | < 10 nM | < 140 nM | 10.5 nM | 10.8 nM | < 20 nM |  |  |  |  |  |  | 15.9 nM | 1.25 nM | 10.4 nM | 
Cc1cc(Nc2ncc(C(F)(F)F)c(Nc3cn(C)nc3S(=O)(=O)C(C)C)n2)c2c(c1C1CCN(C)CC1)C[C@@H](C)O2 [REX-D4, (R)—N^2-(2,5-dimethyl-4-(1-methylpiperidin-4-yl)-2,3-dihydrobenzofuran-7-yl)-N^4-(3-(isopropylsulfonyl)-1-methyl-1H-pyrazol-4-yl)-5-(trifluoromethyl)pyrimidine-2,4-diamine] | < 10 nM | < 50 nM | 10.5 nM | 10.6 nM | < 10 nM |  |  |  |  |  |  | 5.9 nM | 0.565 nM | 10.5 nM | 
